Reference: PubChem BioAssay (NCI)
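Values below derive from 48-hour exposures of cells grown in 96-well plates, with endpoints linearly interpolated between the two concentrations bracketing the appropriate inhibition level. TGI is the concentration that stops growth completely.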

Assays:
Experiment in all cases: NCI-60 cell line screen, 48 h
K-562 leukemia = tested on: K-562 leukemia
SF-268 CNS = tested on: SF-268 CNS
CAKI-1 renal = tested on: CAKI-1 renal
MDA-MB-231 breast = tested on: MDA-MB-231 breast
SK-OV-3 ovarian = tested on: SK-OV-3 ovarian
HOP-92 NSCLC = tested on: HOP-92 NSCLC
SNB-19 CNS = tested on: SNB-19 CNS
MDA-N = tested on: MDA-N
SK-MEL-5 melanoma = tested on: SK-MEL-5 melanoma
SF-539 CNS = tested on: SF-539 CNS
ACHN renal = tested on: ACHN renal
UACC-62 melanoma = tested on: UACC-62 melanoma
HCC-2998 colon = tested on: HCC-2998 colon
COLO 205 colon = tested on: COLO 205 colon
SNB-75 CNS = tested on: SNB-75 CNS
NCI-H522 lung = tested on: NCI-H522 lung
HOP-62 NSCLC = tested on: HOP-62 NSCLC
SN12C renal = tested on: SN12C renal
EKVX NSCLC = tested on: EKVX NSCLC
RXF 393 renal = tested on: RXF 393 renal
TK-10 renal = tested on: TK-10 renal
IGROV1 ovarian = tested on: IGROV1 ovarian
SK-MEL-2 melanoma = tested on: SK-MEL-2 melanoma
KM12 colon = tested on: KM12 colon
LOX IMVI melanoma = tested on: LOX IMVI melanoma
DU-145 prostate = tested on: DU-145 prostate
786-0 renal = tested on: 786-0 renal
BT-549 breast = tested on: BT-549 breast
NCI-H226 lung = tested on: NCI-H226 lung
HT29 colon = tested on: HT29 colon
MCF7 breast = tested on: MCF7 breast
UO-31 renal = tested on: UO-31 renal
MDA-MB-435 = tested on: MDA-MB-435
SK-MEL-28 melanoma = tested on: SK-MEL-28 melanoma
A549 NSCLC = tested on: A549 NSCLC
SW-620 colon = tested on: SW-620 colon
T-47D breast = tested on: T-47D breast
MALME-3M melanoma = tested on: MALME-3M melanoma
SF-295 CNS = tested on: SF-295 CNS
CCRF-CEM leukemia = tested on: CCRF-CEM leukemia
M14 melanoma = tested on: M14 melanoma
MOLT-4 leukemia = tested on: MOLT-4 leukemia
HCT-116 colon = tested on: HCT-116 colon
OVCAR-8 ovarian = tested on: OVCAR-8 ovarian
RPMI-8226 leukemia = tested on: RPMI-8226 leukemia
HL-60(TB) leukemia = tested on: HL-60(TB) leukemia
SR leukemia = tested on: SR leukemia
HS 578T breast = tested on: HS 578T breast
NCI/ADR-RES ovarian = tested on: NCI/ADR-RES ovarian
OVCAR-3 ovarian = tested on: OVCAR-3 ovarian
OVCAR-4 ovarian = tested on: OVCAR-4 ovarian
HCT-15 colon = tested on: HCT-15 colon
OVCAR-5 ovarian = tested on: OVCAR-5 ovarian
U251 CNS = tested on: U251 CNS
UACC-257 melanoma = tested on: UACC-257 melanoma
PC-3 prostate = tested on: PC-3 prostate
NCI-H460 lung = tested on: NCI-H460 lung
NCI-H23 lung = tested on: NCI-H23 lung
A498 renal = tested on: A498 renal

Measured: TGI

COc1ccc(C(C#N)NC23CC4CC(CC(C4)C2)C3)cc1OC (stereo not drawn)
not listed: A498 renal
> 100 µM: all other assays above

CSc1c(C#N)c(O)n(-c2ccc(C)cc2)c(=O)c1C#N
not listed: ACHN renal | HOP-62 NSCLC | SF-295 CNS | CCRF-CEM leukemia
> 100 µM: all other assays above

Nc1nc(N)c(C2=CCN(Cc3ccccc3)CC2)c(=O)[nH]1
not listed: HCC-2998 colon | TK-10 renal | LOX IMVI melanoma | SR leukemia
> 100 µM: all other assays above
